From ChEMBL document CHEMBL1201862, “PubChem BioAssay data set” (2004)
Calls of active or inactive are those of the source. Cut-off read from the data, not from the text of the source, for most assays here: actives have a measured EC50 and inactives only a lower limit.

How the values were obtained:
cells [1] = type: functional, cell-based
cells [2] = type: functional, cell-based; remark: listed apart in the source
Cytochrome P450 2C9 = Cytochrome P450 2C9 (Homo sapiens, UniProt P11712)
[3] = HEp-2 cell cytotoxicity, dose response, cytotoxicity control for RSV inhibitor project, HTS (AID 2410); type: functional; settings: human respiratory syncytial virus
[4] = test system: Streptococcus sp. 'group A'; assay: growth inhibition of control SK(-) GAS strain, dose response, counter-screen for streptokinase expression inhibitor project, luminescence, kanamycin, BacTiterGlo, confirmation (AID 1900); type: functional, organism-based
Streptokinase A = molecular target: T1, Streptokinase A (Streptococcus pyogenes serotype M1, UniProt P10520); assay: S. pyogenes streptokinase expression inhibitors, potency, dose response, plasminogen activation absorbance, OD405 (AID 1914); type: functional, Streptococcus pyogenes M1 GAS;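 note: secreted streptokinase activity via plasminogen activation per viability signal from cell pellet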
T1 sequence (P10520 whole entry): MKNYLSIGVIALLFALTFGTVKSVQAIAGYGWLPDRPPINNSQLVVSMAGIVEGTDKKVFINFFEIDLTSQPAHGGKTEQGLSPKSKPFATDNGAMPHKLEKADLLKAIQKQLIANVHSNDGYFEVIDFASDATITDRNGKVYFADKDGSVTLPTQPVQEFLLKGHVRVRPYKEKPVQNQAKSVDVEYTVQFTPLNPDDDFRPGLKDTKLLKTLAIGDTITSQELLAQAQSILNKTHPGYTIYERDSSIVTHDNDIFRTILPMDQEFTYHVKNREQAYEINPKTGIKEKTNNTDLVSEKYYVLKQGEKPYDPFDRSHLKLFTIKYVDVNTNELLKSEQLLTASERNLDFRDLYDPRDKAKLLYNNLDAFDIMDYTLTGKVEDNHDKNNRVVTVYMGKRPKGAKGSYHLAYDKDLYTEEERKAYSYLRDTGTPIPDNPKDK

Streptococcus = assay: Group A Streptococcus viability loss, dose response, counter-screen for streptokinase expression inhibitor project, luminescence, BacTiterGlo (AID 1915); type: functional, organism-based;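 note: potency for reduction of bacterial viability or growth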
[5] = molecular target: Luciferin 4-monooxygenase (Photinus pyralis, UniProt P08659); assay: firefly luciferase enzyme inhibitors, dose response, biochemical, luminescence (AID 1891)
[6] = Luminescence Cell-Based Dose Confirmation HTS to Identify Inhibitors of Platelet Dense Granule Release. [Related pubchem assays: 1663 (Primary HTS), 1678 (Summary of Project)]; type: functional
[7] = inhibitors of firefly luciferase expression or activity, dose response, H4 neuroglioma cells, luminescence (AID 1990); type: functional, cell-based
[8] = Luminescence Cell-Based Dose Response HTS to Identify Inhibitors of 5'UTR Stem-Loop Driven Prion Protein mRNA Translation in H4 Neuroglioblastoma Cells. [Related pubchem assays: 1827 (Project Summary), 1813 (Primary HTS)]; type: functional
[9] = molecular target: T2, Heat shock factor protein 1 (Mus musculus, UniProt P38532); assay: inhibition of MG132-induced HSE-luciferase signal, confirmation, cell-based, NIH3T3, luminescence, dose retest (AID 2382); type: functional;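 note: NIH3T3 fibroblasts with HSF1-driven luciferase reporter stressed by proteasome inhibitor MG132; luminescence from HSF1-driven luciferase expression after 8 hours of MG132 stress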
T2 sequence (P38532 whole entry): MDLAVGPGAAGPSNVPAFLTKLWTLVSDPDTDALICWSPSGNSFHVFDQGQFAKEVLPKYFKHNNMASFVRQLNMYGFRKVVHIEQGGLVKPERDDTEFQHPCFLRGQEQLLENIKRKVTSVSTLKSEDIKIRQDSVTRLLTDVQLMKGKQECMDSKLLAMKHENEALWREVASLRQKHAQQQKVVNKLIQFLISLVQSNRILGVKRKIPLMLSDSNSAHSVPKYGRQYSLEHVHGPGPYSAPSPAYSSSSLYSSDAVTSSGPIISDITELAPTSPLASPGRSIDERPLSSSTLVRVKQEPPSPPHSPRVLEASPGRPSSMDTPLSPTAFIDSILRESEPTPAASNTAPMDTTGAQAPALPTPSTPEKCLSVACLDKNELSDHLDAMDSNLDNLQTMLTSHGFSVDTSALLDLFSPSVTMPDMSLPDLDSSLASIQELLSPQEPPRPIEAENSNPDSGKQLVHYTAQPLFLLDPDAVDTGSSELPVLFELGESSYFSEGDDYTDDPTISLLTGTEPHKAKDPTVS

[10] = inhibitors of SNCA 5'UTR-driven reporter translation, confirmation, H4 neuroglioma cells, luminescence (AID 1988); type: functional, cell-based

Cytochrome P450 2C9, sequence (P11712 whole entry): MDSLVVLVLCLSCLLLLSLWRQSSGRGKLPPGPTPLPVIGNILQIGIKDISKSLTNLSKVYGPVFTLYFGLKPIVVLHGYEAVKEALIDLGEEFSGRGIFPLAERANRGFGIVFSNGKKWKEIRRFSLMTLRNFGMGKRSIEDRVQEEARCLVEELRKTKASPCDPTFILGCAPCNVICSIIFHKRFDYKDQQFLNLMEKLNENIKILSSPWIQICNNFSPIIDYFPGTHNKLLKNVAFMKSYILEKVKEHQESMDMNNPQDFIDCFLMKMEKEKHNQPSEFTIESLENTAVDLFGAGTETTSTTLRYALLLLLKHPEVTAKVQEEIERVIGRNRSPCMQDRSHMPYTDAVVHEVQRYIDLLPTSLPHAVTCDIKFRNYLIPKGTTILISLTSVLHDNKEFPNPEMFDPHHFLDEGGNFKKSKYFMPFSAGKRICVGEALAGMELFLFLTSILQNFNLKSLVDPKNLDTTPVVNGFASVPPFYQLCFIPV
Luciferin 4-monooxygenase, sequence (P08659 whole entry): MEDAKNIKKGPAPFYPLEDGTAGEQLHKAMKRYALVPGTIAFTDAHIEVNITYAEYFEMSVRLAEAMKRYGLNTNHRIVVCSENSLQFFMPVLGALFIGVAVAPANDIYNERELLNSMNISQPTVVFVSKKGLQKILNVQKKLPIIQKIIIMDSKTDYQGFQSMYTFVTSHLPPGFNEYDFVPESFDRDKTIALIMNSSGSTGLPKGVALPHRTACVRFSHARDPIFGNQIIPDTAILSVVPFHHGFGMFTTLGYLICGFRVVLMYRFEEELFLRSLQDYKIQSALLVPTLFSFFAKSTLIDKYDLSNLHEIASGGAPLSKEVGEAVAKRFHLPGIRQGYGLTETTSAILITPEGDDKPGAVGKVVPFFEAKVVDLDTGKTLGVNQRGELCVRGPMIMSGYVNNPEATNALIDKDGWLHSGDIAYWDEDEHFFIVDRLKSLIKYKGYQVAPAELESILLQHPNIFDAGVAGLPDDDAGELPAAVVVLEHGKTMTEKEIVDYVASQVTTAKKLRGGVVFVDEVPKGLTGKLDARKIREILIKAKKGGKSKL

CCCn1c2ccccc2c2cnn(CC(=O)NC3CCCC(C)C3C)c(=O)c21 (stereo not drawn)
EC50 (cells [1]): > 350 µM (not active) | EC50 (cells [2]): > 350 µM (not active)

O=C(CSc1nnc(-c2ccco2)n1Cc1ccco1)NCc1ccccc1
EC50 (cells [1]): > 350 µM (not active) | EC50 (cells [2]): > 350 µM (not active)

CCOc1ccc(C(=O)O)cc1OC
AC50 (Cytochrome P450 2C9): inconclusive

Cc1ccc(-c2nn(-c3ccccc3)cc2/C=N/n2c(S)nnc2-c2cccs2)cc1
CC50 [3]: 14.7 µM (active) | EC50 [4]: 10.3 µM (active) | EC50 (Streptokinase A): 103 µM (active) | EC50 (Streptococcus): 82.8 µM (active)

COC(=O)c1ccc(C(C(=O)NCc2ccccc2)N(Cc2ccco2)C(=O)c2cnccn2)cc1 (stereo not drawn)
EC50 (cells [1]): > 350 µM (not active) | EC50 (cells [2]): > 350 µM (not active)

COc1ccc(/C=N/NC(=S)Nc2cc(S(=O)(=O)N3CCOCC3)ccc2N2CCOCC2)cc1O
EC50 (cells [1]): > 350 µM (not active) | EC50 (cells [2]): > 350 µM (not active)

O=C(N/N=C/c1cc2cc3c(cc2nc1Cl)OCO3)c1ccncc1
EC50 (cells [1]): > 350 µM (not active) | EC50 [5]: > 112 µM (not active) | EC50 [6]: > 112 µM (not active) | EC50 (cells [2]): > 350 µM (not active)

CCCOc1ccc(C2C(C(=O)c3cc4ccccc4o3)=C(O)C(=O)N2c2cc(C)on2)cc1OC (stereo not drawn)
EC50 [4]: 1.2 µM (active) | EC50 (Streptokinase A): > 150 µM (not active) | EC50 (Streptococcus): 5.24 µM (active)

CC(C)[C@@H](C(=O)NC1CCCC1)N1C(=O)N2CCc3c([nH]c4ccccc34)[C@@]2(C)C1=O
EC50 [4]: 30.2 µM (active) | EC50 (Streptokinase A): > 150 µM (not active) | EC50 (Streptococcus): > 150 µM (not active)

CCn1c(SCC(=O)c2cc(C)ccc2C)nc2cc(S(=O)(=O)N3CCOCC3)ccc21
EC50 (cells [1]): > 350 µM (not active) | EC50 (cells [2]): > 350 µM (not active)

COCCn1c(-c2ccc(OC)cc2)cnc1SCC(=O)Nc1ccc(OC)cc1OC
EC50 (cells [1]): > 350 µM (not active) | EC50 (cells [2]): > 350 µM (not active)

COc1ccc(/C=C2/Sc3ccc(C(=O)N4CCc5ccccc5C4)cc3NC2=O)cc1
EC50 [4]: 1.73 µM (active) | EC50 (Streptokinase A): > 150 µM (not active) | EC50 (Streptococcus): 4.98 µM (active)

NC(S)=Nc1cccc2cccnc12
AC50 (Cytochrome P450 2C9): inconclusive

Cc1ccc(-n2nnnc2SCC(=O)NNC(=O)c2ccco2)c(C)c1
AC50 (Cytochrome P450 2C9): inconclusive

CC(=O)N1CCC(=NNc2nc3ccccc3[nH]2)CC1
EC50 (cells [1]): > 350 µM (not active) | EC50 (cells [2]): 32.3 µM (active)

Cc1ccc(/C(O)=C/C=N/c2ccccn2)cc1
EC50 [7]: 3.18 µM (active) | EC50 [8]: 1.4 µM (active) | EC50 [9]: 4.24 µM (active) | EC50 [10]: 0.188 µM (active) | EC50 [5]: 1.64 µM (active) | EC50 [6]: 5.11 µM (active)

N=c1c2c(-c3ccccc3)c(-c3ccccc3)oc2ncn1Cc1ccco1
EC50 [4]: 6.44 µM (active) | EC50 (Streptokinase A): 17.5 µM (active) | EC50 (Streptococcus): 30.3 µM (active)
